Test [1] addresses GDP-bound NRAS wild-type protein (Homo sapiens, UniProt P01111). Nature of the test: Binding to NRAS by surface plasmon resonance (SPR), Single Cycle Kinetics.
Test [2] deals with GDP-bound HRAS wild-type protein (Homo sapiens, UniProt P01112). Nature of the test: Binding to HRAS by surface plasmon resonance (SPR), Single Cycle Kinetics. (In general: Surface plasmon resonance follows binding to a sensor surface in real time, without labels.)
Setting [3] is: SPR, GDP-bound NRAS wild-type vs GDP-bound KRAS wild-type.
The mark [4] stands for this setting: SPR, GDP-bound HRAS wild-type vs GDP-bound KRAS wild-type.

The results in this text go back to US20250230193A1, “CYCLIC COMPOUND HAVING SELECTIVE KRAS INHIBITORY EFFECT ON HRAS AND NRAS” (CHUGAI SEIYAKU KABUSHIKI KAISHA, priority 2022, published 2025).

Where a SMILES comes first, the peptide text is derived from it. Bridges are numbered along the chain shown (N, C = ends). [ ]: non-standard residue; d: D form. The star is where a group is joined. hPhe(3-Cl-4-CF3) = N[C@@H](CCc1ccc(C(F)(F)F)c(Cl)c1)C(=O)O; NPrPhe(4-CF3) = CCCN[C@@H](Cc1ccc(C(F)(F)F)cc1)C(=O)O; Morpholine(3S-CO) = O=C(O)[C@@H]1COCCN1; NMeGly(cPent) = CN[C@H](C(=O)O)C1CCCC1; NMeD = CN[C@@H](CC(=O)O)C(=O)O; NMeL = CN[C@@H](CC(C)C)C(=O)O; Morpholide = C1CN(*)CCO1; Ac5c = NC1(C(=O)O)CCCC1; NEtG = CCNCC(=O)O; Sar = CNCC(=O)O

GDP-bound NRAS wild-type protein, sequence (P01111 whole entry): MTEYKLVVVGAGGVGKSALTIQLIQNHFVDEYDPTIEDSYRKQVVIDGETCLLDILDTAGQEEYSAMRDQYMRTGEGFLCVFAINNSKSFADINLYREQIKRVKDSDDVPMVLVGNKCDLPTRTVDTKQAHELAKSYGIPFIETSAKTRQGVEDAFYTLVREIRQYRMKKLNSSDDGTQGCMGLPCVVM
GDP-bound HRAS wild-type protein, sequence (P01112 whole entry): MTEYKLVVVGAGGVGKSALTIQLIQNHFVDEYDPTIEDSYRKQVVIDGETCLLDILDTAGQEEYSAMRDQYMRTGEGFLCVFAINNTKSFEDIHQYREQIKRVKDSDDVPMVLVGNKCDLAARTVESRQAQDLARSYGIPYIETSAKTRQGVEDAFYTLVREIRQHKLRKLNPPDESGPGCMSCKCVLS

Regarding `CCCN1C(=O)CN(C)C(=O)CN(CC)C(=O)[C@H]([C@@H](C)CC)NC(=O)[C@H](CC(C)C)N(C)C(=O)C[C@@H](C(=O)N2CCOCC2)N(C)C(=O)[C@H](C2CCCC2)N(C)C(=O)C2(CCCC2)NC(=O)[C@@H]2COCCN2C(=O)[C@H](CCc2ccc(C(F)(F)F)c(Cl)c2)NC(=O)CN(C)C(=O)[C@@H]1Cc1ccc(C(F)(F)F)cc1` [PP0299] ([NMeL]I[NEtG][Sar][NPrPhe(4-CF3)][Sar][hPhe(3-Cl-4-CF3)][Morpholine(3S-CO)][Ac5c][NMeGly(cPent)][NMeD]-Morpholide; lactam N-11), the “NRAS/KRAS (ratio of KD for GDP-bound NRAS wild-type to KD for KRAS)” value in test [1] (KD ratio NRAS/KRAS, SPR) is “B (a compound having 3 or more and less than 10 is denoted as B)”. The “HRAS/KRAS (ratio of KD for GDP-bound HRAS wild-type to KD for KRAS)” value in test [2] (KD ratio HRAS/KRAS, SPR) was “B (a compound having 3 or more and less than 10 is denoted as B)”.
`CCC[C@H]1C(=O)N[C@@H](CC(C)C)C(=O)N(CCOC)CC(=O)N(C)[C@H]2C/C=C\CCN(C2=O)[C@@H](Cc2ccc(C)cc2)C(=O)N(C)CC(=O)N[C@@H](CCc2ccc(C(F)(F)F)c(Cl)c2)C(=O)N2C[C@H](OCC)C[C@H]2C(=O)NC2(CCC2)C(=O)N(C)[C@@H](C2CCCC2)C(=O)N(C)[C@H](C(=O)N(C)C)CC(=O)N1C` [PP2546]: the “NRAS/KRAS (ratio of KD value with respect to GDP-bound NRAS wild-type protein to KD value with respect to KRAS)” value in test [1] (KD ratio NRAS/KRAS, class symbols) is “B (a compound having 3 or more and less than 10 is denoted as B)”. In addition, in test [2] (KD ratio HRAS/KRAS, class symbols), the “HRAS/KRAS (ratio of KD value with respect to GDP-bound HRAS wild-type protein to KD value with respect to KRAS)” value is “B (a compound having 3 or more and less than 10 is denoted as B)”.
With `CCO[C@@H]1C[C@H]2C(=O)NC3(CCC3)C(=O)N(C)[C@@H](C3CCCC3)C(=O)N(C)[C@H](C(=O)N(C)C)CC(=O)N(C)[C@H]3CCCCCc4ccc(cc4)C[C@@H](C(=O)N(C)CC(=O)N[C@@H](CCc4ccc(C(F)(F)F)c(OC)c4)C(=O)N2C1)N1CC/C=C\C[C@@H](C1=O)N(C)C(=O)CN(C)C(=O)[C@H]([C@@H](C)CC)NC3=O` [PP2262], in test [1] (setting [3]), the “NRAS/KRAS (ratio of KD value with respect to NRAS to KD value with respect to KRAS)” value is “A (a compound having 10 or more and less than 20 is denoted as A)”. In test [2] (setting [4]), the “HRAS/KRAS (ratio of KD value with respect to HRAS to KD value with respect to KRAS)” value is “B (a compound having 3 or more and less than 10 is denoted as B)”.
With `CCC(CC)[C@@H]1NC(=O)[C@H](CC(C)C)N(C)C(=O)C[C@@H](C(=O)N2CCOCC2)N(C)C(=O)[C@H](C2CCCC2)N(C)C(=O)C2(CCCC2)NC(=O)[C@@H]2CCCN2C(=O)[C@H](CCc2cc(F)c(C(F)(F)F)c(F)c2)NC(=O)CN(C)C(=O)[C@H](Cc2ccc(C(F)(F)F)cc2)N2CCCCC[C@@H](C2=O)N(C)C(=O)CN(C)C1=O` [PP0523], the “NRAS/KRAS (ratio of KD value with respect to GDP-bound NRAS wild-type protein to KD value with respect to KRAS)” value in test [1] (KD ratio NRAS/KRAS, SPR) was “A (a compound having 10 or more and less than 20 is denoted as A)”. The “HRAS/KRAS (ratio of KD value with respect to GDP-bound HRAS wild-type protein to KD value with respect to KRAS)” value in test [2] (KD ratio HRAS/KRAS, SPR) was “B (a compound having 3 or more and less than 10 is denoted as B)”.
Consider `CCCOC[C@H]1C(=O)N[C@@H]([C@@H](C)CC)C(=O)N2CCC[C@H]2C(=O)N(C)[C@H]2C/C=C\CCN(C2=O)[C@@H](Cc2ccc(C)cc2)C(=O)N(C)CC(=O)N[C@@H](CCc2cc(F)c(C(F)(F)F)c(F)c2)C(=O)N2C[C@H](C)C[C@H]2C(=O)NC2(CC(C)(C)C2)C(=O)N(C)[C@@H](C2CCCC2)C(=O)N(C)[C@H](C(=O)N(C)CC)CC(=O)N1C` [PP2430], for which the “NRAS/KRAS (ratio of KD value with respect to NRAS to KD value with respect to KRAS)” value in test [1] (setting [3]) is “AA (a compound having 20 or more is denoted as AA)”. Also, the “HRAS/KRAS (ratio of KD value with respect to HRAS to KD value with respect to KRAS)” value in test [2] (setting [4]) is “A (a compound having 10 or more and less than 20 is denoted as A)”.
Turning to `CCC[C@H]1C(=O)N[C@@H](C2CCCC2)C(=O)N(C)CC(=O)N(C)[C@H]2C/C=C\CCN(C2=O)[C@@H](Cc2ccc(C)cc2)C(=O)N(C)CC(=O)N[C@@H](CCc2ccc(C(F)(F)F)c(OC)c2)C(=O)N2C[C@H](OCC)C[C@H]2C(=O)NC2(CC(C)(C)C2)C(=O)N(C)[C@@H](C2CCCC2)C(=O)N(C)[C@H](C(=O)N(C)C)CC(=O)N1C` [PP2992], the “NRAS/KRAS (ratio of KD value with respect to GDP-bound NRAS wild-type protein to KD value with respect to KRAS)” value in test [1] (KD ratio NRAS/KRAS, SPR, GDP-bound wild-type proteins) is “AA (a compound having 20 or more is denoted as AA)”. Moreover, in test [2] (KD ratio HRAS/KRAS, SPR, GDP-bound wild-type proteins), the “HRAS/KRAS (ratio of KD value with respect to GDP-bound HRAS wild-type protein to KD value with respect to KRAS)” value is “A (a compound having 10 or more and less than 20 is denoted as A)”.
On to `CCC[C@H]1C(=O)N[C@@H]([C@@H](C)CC)C(=O)N(C)CC(=O)N(C)[C@H]2C/C=C\CCN(C2=O)[C@@H](Cc2ccc(C(F)(F)F)cc2)C(=O)N(C)CC(=O)N[C@@H](CCc2ccc(Cl)c(Cl)c2)C(=O)N2C[C@H](OCC)C[C@H]2C(=O)NC2(CC(C)(C)C2)C(=O)N(C)[C@@H](C2CCCC2)C(=O)N(C)[C@H](C(=O)N(C)C)CC(=O)N1C` [PP1932], for which the “NRAS/KRAS (ratio of KD value for NRAS to KD value for KRAS)” value in test [1] (KD ratio, GDP-bound NRAS wild-type vs GDP-bound KRAS wild-type, SPR) is “A (a compound having 10 or more and less than 20 is denoted as A)”. Moreover, the “HRAS/KRAS (ratio of KD value for HRAS to KD value for KRAS)” value in test [2] (KD ratio, GDP-bound HRAS wild-type vs GDP-bound KRAS wild-type, SPR) is “A (a compound having 10 or more and less than 20 is denoted as A)”.
